# PubChem BioAssay AID248 (DTP/NCI, 2004)
# “And” between values parts separate entries of the source, which are not always exact repeats. Equal entries are not always repeated. Toxic doses and inconclusive results are not listed.
# System: L1210 leukemia ip in BDF1 mice, survival T/C
# Experiment: NCI In Vivo Anticancer Drug Screen. Data for tumor model L1210 Leukemia (intraperitoneal) in B6D2F1 (BDF1) mice
# Settings: endpoint: mean survival time, higher = longer survival
# Procedure, shortened: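 Survival endpoint. Drug-treated group vs vehicle group, expressed as T divided by C. Tumor passaged by transplantation.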
# [1] = dose: 100.0 mg/kg/injection, schedule: Q04DX003 (ip), vehicle: Klucel (hydroxypropylcellulose) (HPC)
# [2] = dose: 200.0 mg/kg/injection, schedule: Q04DX003 (ip), vehicle: Klucel (hydroxypropylcellulose) (HPC)
# [3] = dose: 400.0 mg/kg/injection, schedule: Q04DX003 (ip), vehicle: Klucel (hydroxypropylcellulose) (HPC)
# [4] = dose: 100.0 mg/kg/injection, schedule: Q04DX003 (ip), vehicle: saline with Tween-80
# [5] = dose: 200.0 mg/kg/injection, schedule: Q04DX003 (ip), vehicle: saline with Tween-80
# [6] = dose: 400.0 mg/kg/injection, schedule: Q04DX003 (ip), vehicle: saline with Tween-80
# [7] = dose: 100.0 mg/kg/injection, schedule: Q04DX002 (ip), vehicle: Klucel (hydroxypropylcellulose) (HPC)
# [8] = dose: 200.0 mg/kg/injection, schedule: Q04DX002 (ip), vehicle: Klucel (hydroxypropylcellulose) (HPC)
# [9] = dose: 400.0 mg/kg/injection, schedule: Q04DX002 (ip), vehicle: Klucel (hydroxypropylcellulose) (HPC)
# [10] = dose: 100.0 mg/kg/injection, schedule: Q01DX001 (ip), vehicle: saline
# [11] = dose: 100.0 mg/kg/injection, schedule: Q04DX003 (ip), vehicle: saline
# [12] = dose: 200.0 mg/kg/injection, schedule: Q01DX001 (ip), vehicle: saline
# [13] = dose: 200.0 mg/kg/injection, schedule: Q01DX009 (ip), vehicle: saline
# [14] = dose: 200.0 mg/kg/injection, schedule: Q04DX003 (ip), vehicle: saline
# [15] = dose: 400.0 mg/kg/injection, schedule: Q01DX001 (ip), vehicle: saline
# [16] = dose: 400.0 mg/kg/injection, schedule: Q04DX003 (ip), vehicle: saline
# [17] = dose: 100.0 mg/kg/injection, schedule: Q01DX009 (ip), vehicle: saline with Tween-80
# [18] = dose: 200.0 mg/kg/injection, schedule: Q01DX009 (ip), vehicle: saline with Tween-80
# [19] = dose: 400.0 mg/kg/injection, schedule: Q01DX009 (ip), vehicle: saline with Tween-80
# [20] = dose: 100.0 mg/kg/injection, schedule: Q01DX001 (ip), vehicle: carboxymethylcellulose (CMC)
# [21] = dose: 200.0 mg/kg/injection, schedule: Q01DX001 (ip), vehicle: carboxymethylcellulose (CMC)
# [22] = dose: 400.0 mg/kg/injection, schedule: Q01DX001 (ip), vehicle: carboxymethylcellulose (CMC)
# [23] = dose: 100.0 mg/kg/injection, schedule: Q01DX009 (ip), vehicle: Klucel (hydroxypropylcellulose) (HPC)
# [24] = dose: 200.0 mg/kg/injection, schedule: Q01DX009 (ip), vehicle: Klucel (hydroxypropylcellulose) (HPC)
# [25] = dose: 400.0 mg/kg/injection, schedule: Q01DX009 (ip), vehicle: Klucel (hydroxypropylcellulose) (HPC)
compound,measurement,setting,value
O=C1CC(Nc2ccc(F)cc2)C(=O)N1c1ccc(F)cc1 (stereo not drawn),T/C,"dose: 75.0 mg/kg/injection, schedule: Q04DX003 (ip), vehicle: other",90 % of control
same,T/C,"dose: 150.0 mg/kg/injection, schedule: Q04DX003 (ip), vehicle: other",92 % of control
same,T/C,"dose: 300.0 mg/kg/injection, schedule: Q04DX003 (ip), vehicle: other",90 % of control
CSC(=Nc1ccccc1)N(C)c1ccccc1,T/C,[1],90 % of control
same,T/C,[2],86 % of control
same,T/C,[3],88 % of control
COC(=O)CCC(=O)/C=C1/Nc2ccccc2C1=O,T/C,[4],92 % of control
same,T/C,[5],95 % of control
same,T/C,[6],90 % of control
CCCP(=S)(CCC)P(=S)(CCC)CCC,T/C,[7],100 % of control
same,T/C,[8],92 % of control
same,T/C,[9],92 % of control
CC(C)(CC(=O)O)c1ccccc1,T/C,[10],96 % of control
same,T/C,"dose: 100.0 mg/kg/injection, schedule: Q01DX009 (ip), vehicle: saline",104 % of control
same,T/C,[11],100 % of control
same,T/C,[12],106 % of control
same,T/C,[13],101 % of control
same,T/C,[14],104 % of control
same,T/C,[15],96 % of control
same,T/C,"dose: 400.0 mg/kg/injection, schedule: Q01DX009 (ip), vehicle: saline",96 % of control
same,T/C,[16],91 % of control
CC(=O)c1ccc(C(O)C(CO)NC(=O)C(Cl)Cl)cc1 (stereo not drawn),T/C,[1],100 % of control
same,T/C,[2],103 % of control
same,T/C,[3],103 % of control
CC(C)(C)Nc1ccc(F)cc1,T/C,[7],106 % of control
same,T/C,[8],95 % of control
CC(C)(C)C(=O)N/N=C\c1ccc([N+](=O)[O-])s1,T/C,[11],93 % of control
same,T/C,[14],87 % of control
same,T/C,[16],94 % of control
CC(C)COC(=O)c1cc(O)c(O)c(O)c1,T/C,[17],100 % of control
same,T/C,[4],97 % of control
same,T/C,[18],107 % of control
same,T/C,[5],105 % of control
same,T/C,[19],107 % of control
same,T/C,[6],95 % of control
CCc1c2cc(OC)c(OC)cc2cc2c3cc(OC)c(OC)cc3cc[n+]12 (tested in a mixture with another compound),T/C,"dose: 25.0 mg/kg/injection, schedule: Q01DX009 (ip), vehicle: saline",116 % of control
same,T/C,"dose: 50.0 mg/kg/injection, schedule: Q01DX009 (ip), vehicle: saline",123 % of control
same,T/C,"dose: 66.0 mg/kg/injection, schedule: Q01DX009 (ip), vehicle: saline with Tween-80",150 % of control
same,T/C,"dose: 88.0 mg/kg/injection, schedule: Q04DX003 (ip), vehicle: saline",121 % of control
same,T/C,[17],160 % of control
same,T/C,"dose: 150.0 mg/kg/injection, schedule: Q01DX009 (ip), vehicle: saline with Tween-80",156 % of control
same,T/C,[13],89 % of control
same,T/C,"dose: 300.0 mg/kg/injection, schedule: Q04DX003 (ip), vehicle: saline",107 % of control
O=c1[nH]cnc2[nH]cc([N+](=O)[O-])c12,T/C,"dose: 50.0 mg/kg/injection, schedule: Q01DX001 (ip), vehicle: carboxymethylcellulose (CMC)",101 % of control
same,T/C,[20],89 % of control
same,T/C,[21],98 % of control and 87 % of control
same,T/C,[22],93 % of control and 97 % of control
CCOC(=O)c1cc(=O)c2c(ccc3ccccc32)[nH]1,T/C,[1],94 % of control
same,T/C,[2],93 % of control
CN(C(=O)COc1ccccc1)c1ccc([N+](=O)[O-])cc1,T/C,[17],95 % of control
same,T/C,[18],93 % of control
same,T/C,[19],95 % of control
O=C(c1cccc([N+](=O)[O-])c1)c1[nH]c2sc3c(c2c1O)CCCC3,T/C,"dose: 6.25 mg/kg/injection, schedule: Q01DX009 (ip), vehicle: Klucel (hydroxypropylcellulose) (HPC)",92 % of control
same,T/C,"dose: 12.5 mg/kg/injection, schedule: Q01DX009 (ip), vehicle: Klucel (hydroxypropylcellulose) (HPC)",94 % of control and 91 % of control
same,T/C,"dose: 25.0 mg/kg/injection, schedule: Q01DX009 (ip), vehicle: Klucel (hydroxypropylcellulose) (HPC)",89 % of control
CN1C(=O)C(Br)C(Br)c2ccccc21 (stereo not drawn),T/C,"dose: 100.0 mg/kg/injection, schedule: Q01DX001 (ip), vehicle: other",107 % of control
same,T/C,"dose: 200.0 mg/kg/injection, schedule: Q01DX001 (ip), vehicle: other",102 % of control
C=CC1C(OCC)(OCC)CS1(=O)=O (stereo not drawn),T/C,[10],93 % of control
same,T/C,"dose: 100.0 mg/kg/injection, schedule: Q01DX009 (ip), vehicle: acetone",106 % of control
same,T/C,[12],98 % of control
same,T/C,"dose: 200.0 mg/kg/injection, schedule: Q01DX009 (ip), vehicle: acetone",100 % of control
same,T/C,[15],95 % of control
same,T/C,"dose: 400.0 mg/kg/injection, schedule: Q01DX009 (ip), vehicle: acetone",106 % of control
CCOC(=O)C1(C(=O)OCC)COC(C)(C)OC1,T/C,[11],103 % of control
same,T/C,[14],118 % of control
same,T/C,[16],106 % of control
O=C(Nc1ccc2c3c(ccc(NC(=O)c4ccccc4)c13)C=C2)c1ccccc1,T/C,"dose: 50.0 mg/kg/injection, schedule: Q01DX001 (ip), vehicle: saline",102 % of control
same,T/C,[10],100 % of control
same,T/C,[12],100 % of control
same,T/C,[15],100 % of control
CC1(C)Oc2c(ccc(O)c2CN2CCCC2)C2=C1CCCC2,T/C,[10],95 % of control
same,T/C,[12],95 % of control
same,T/C,[15],95 % of control
NC(=O)Oc1ccccc1Cl,T/C,"dose: 75.0 mg/kg/injection, schedule: Q04DX003 (ip), vehicle: Klucel (hydroxypropylcellulose) (HPC)",104 % of control
same,T/C,"dose: 150.0 mg/kg/injection, schedule: Q04DX003 (ip), vehicle: Klucel (hydroxypropylcellulose) (HPC)",100 % of control
same,T/C,"dose: 300.0 mg/kg/injection, schedule: Q04DX003 (ip), vehicle: Klucel (hydroxypropylcellulose) (HPC)",105 % of control
Nc1ccc(O)c2c1C(=O)c1ccccc1C2=O,T/C,[23],103 % of control
same,T/C,[7],104 % of control
same,T/C,[24],92 % of control
same,T/C,[8],115 % of control
same,T/C,[25],96 % of control
same,T/C,[9],100 % of control
NCC(O)C(F)(F)C(F)(F)C(F)(F)F (stereo not drawn),T/C,[20],103 % of control
same,T/C,[21],103 % of control
same,T/C,[22],95 % of control
CCOC(=O)CC(=O)C1CCC2C3CC=C4CC(OC(=O)OCC)CCC4(C)C3CCC12C (stereo not drawn),T/C,"dose: 25.0 mg/kg/injection, schedule: Q01DX001 (sc), vehicle: olive oil, sesame oil, peanut oil",104 % of control
same,T/C,"dose: 50.0 mg/kg/injection, schedule: Q01DX001 (sc), vehicle: olive oil, sesame oil, peanut oil",107 % of control
same,T/C,"dose: 100.0 mg/kg/injection, schedule: Q01DX001 (sc), vehicle: olive oil, sesame oil, peanut oil",93 % of control
O=C(Nc1ccccc1F)OC/C=C/c1ccccc1,T/C,[23],104 % of control
same,T/C,[24],97 % of control
same,T/C,[25],95 % of control
O=C(Nc1cccc2ccccc12)OCCCBr,T/C,[17],90 % of control
same,T/C,[18],90 % of control
